Columns and labels:
[1] = biological target: T1, PDE2A (NM002599) (Homo sapiens, UniProt O00408); test: Inhibition of recombinant PDE2A (expressed in baculovirus/SF21-cells); format: biochemical; settings: recombinant PDE2A, 0.5 μM [3H]-cAMP, 1000 nM cGMP, 37° C., 30 minutes, SPA; read-out: PDE2A IC50
T1 construct: made in house; host or cells: baculovirus / SF21 insect cells
Method: PDE2A (NM002599) was cloned and the gene was inserted in the baculovirus and the enzyme-protein expressed in SF21-cells. The enzyme was isolated from these cells by harvesting the cells by an centrifugation at 200 g to collect the cells. The cells were resuspended in 50 mM Tris-HCl/5 mM MgCl2 buffer (pH=7.4) (Sigma, Deisenhofen, Germany; Merck, Darmstadt, Germany) and lysed by a sonication of the cells (three times for 15 seconds, Labsonic U, Fa. Braun, Degersheim, Switzerland, level “high”). The membrane fraction of PDE2A was obtained by a centrifugation at 48 000 g for 1 h, resuspended in buffer and stored at −70° C.
PDE2A activity was determined in a one step procedure in microtiterplates. The reaction mixture of 100 μl contained 50 mM Tris-HCl/5 mM MgCl2 buffer (pH=7.4) (Sigma, Deisenhofen, Germany; Merck, Darmstadt, Germany), 0.5 μM [3H]-cAMP (Amersham, Buckinghamshire, UK), 1000 nM cGMP and the enzyme. Non-specific enzyme activity was tested in the absence of cGMP. The reaction was initiated by addition of the substrate solution and was carried out at 37° C. for 30 minutes. Enzymatic activity then was stopped by addition of 25 μl SPA-beads (Amersham-Pharmacia). One hour later the mixture was measured in a liquid scintillation counter for microtiterplates (Microbeta Trilux). For pipetting of the incubation mixture the robot Biomek (Fa. Beckman) was routinely used.
The optimal amount of enzyme in the assay has been determined and optimised for each enzyme preparation separately before using the enzyme in compound testing. For determination of IC50 values the Hill-plot, 2-parameter-model, was used.

[2] = biological target: T2, PDE10A1 (AB 020593) (Homo sapiens, UniProt Q9Y233); test: Inhibition of recombinant PDE10A (baculovirus/SF21 system); format: biochemical; settings: recombinant cytosolic PDE10A, 0.1 μM [3H]-cAMP, 37° C., 30 minutes, SPA; read-out: PDE10A IC50
T2 construct: made in house; host or cells: baculovirus / SF21 insect cells (gene synthesized by Entelechon GmbH)
T2 sequence (Q9Y233 other isoform, or with tags, fused parts or gaps): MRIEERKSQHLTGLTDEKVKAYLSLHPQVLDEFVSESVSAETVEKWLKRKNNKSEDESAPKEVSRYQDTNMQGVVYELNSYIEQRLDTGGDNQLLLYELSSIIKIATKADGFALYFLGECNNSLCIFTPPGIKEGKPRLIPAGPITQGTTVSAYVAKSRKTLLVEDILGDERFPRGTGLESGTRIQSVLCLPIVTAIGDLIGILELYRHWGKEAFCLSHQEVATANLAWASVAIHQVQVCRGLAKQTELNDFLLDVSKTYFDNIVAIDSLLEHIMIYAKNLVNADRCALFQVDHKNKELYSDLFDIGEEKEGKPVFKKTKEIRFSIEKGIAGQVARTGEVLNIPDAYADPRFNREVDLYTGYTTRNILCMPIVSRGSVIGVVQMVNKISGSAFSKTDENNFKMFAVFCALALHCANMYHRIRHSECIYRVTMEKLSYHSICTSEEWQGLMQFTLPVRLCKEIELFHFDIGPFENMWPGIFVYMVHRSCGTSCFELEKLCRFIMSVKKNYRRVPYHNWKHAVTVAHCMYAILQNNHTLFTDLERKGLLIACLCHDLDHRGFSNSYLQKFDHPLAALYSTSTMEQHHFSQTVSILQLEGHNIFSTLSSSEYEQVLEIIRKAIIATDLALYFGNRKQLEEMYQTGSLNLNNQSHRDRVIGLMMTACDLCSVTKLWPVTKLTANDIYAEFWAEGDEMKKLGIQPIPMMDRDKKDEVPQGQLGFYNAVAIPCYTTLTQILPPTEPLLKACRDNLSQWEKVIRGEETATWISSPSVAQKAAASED
Method: The DNA of PDE10A1 (AB 020593, 2340 bp) was synthesized and cloned into the vector pCR4.TOPO (Entelechon GmbH, Regensburg, Germany). The gene was than inserted into a baculovirus vector, ligated with the baculovirus DNA. The enzyme-protein was expressed in SF21-cells. The enzyme was isolated from these cells by harvesting the cells by an centrifugation at 500 g to collect the cells.
The cells were resuspended in 50 mM Tris-HCl/1 mM EDTA/250 mM Sucrose buffer, pH=7.4 (Sigma, Deisenhofen, Germany; Merck, Darmstadt, Germany) and lysed by sonification of the cells (three times for 15 seconds, Labsonic U, Fa. Braun, Degersheim, Switzerland, level “high”). The cytosolic PDE10A was obtained by a centrifugation at 48,000 g for 1 h in the supernatant and stored at −70° C.
PDE activity was determined in a one step procedure in microtiter plates. The reaction mixture of 100 μl contained 50 mM Tris-HCl/5 mM MgCl2 buffer (pH=7.4, Sigma, Deisenhofen, Germany; Merck, Darmstadt, Germany) 0.1 μM [3H]-cAMP (Amersham, Buckinghamshire, UK) and the enzyme. Non-specific enzyme activity was determined without the enzyme. The reaction was initiated by addition of the substrate solution and was carried out at 37° C. for 30 minutes. Enzymatic activity then was stopped by addition of 25 μl Ysi-SPA-beads (Amersham-Pharmacia). One h later the mixture was measured in a liquid scintillation counter for microtiter plates (Microbeta Trilux). The Biomek 2000 (Beckman) was used routinely for pipetting of the incubation mixture. The optimal amount of enzyme in the assay has been determined and optimized for each enzyme preparation separately before using the enzyme in compound testing. For determination of IC50 values the Hill-plot, 2-parameter-model, was used.

T1 sequence (O00408 whole entry): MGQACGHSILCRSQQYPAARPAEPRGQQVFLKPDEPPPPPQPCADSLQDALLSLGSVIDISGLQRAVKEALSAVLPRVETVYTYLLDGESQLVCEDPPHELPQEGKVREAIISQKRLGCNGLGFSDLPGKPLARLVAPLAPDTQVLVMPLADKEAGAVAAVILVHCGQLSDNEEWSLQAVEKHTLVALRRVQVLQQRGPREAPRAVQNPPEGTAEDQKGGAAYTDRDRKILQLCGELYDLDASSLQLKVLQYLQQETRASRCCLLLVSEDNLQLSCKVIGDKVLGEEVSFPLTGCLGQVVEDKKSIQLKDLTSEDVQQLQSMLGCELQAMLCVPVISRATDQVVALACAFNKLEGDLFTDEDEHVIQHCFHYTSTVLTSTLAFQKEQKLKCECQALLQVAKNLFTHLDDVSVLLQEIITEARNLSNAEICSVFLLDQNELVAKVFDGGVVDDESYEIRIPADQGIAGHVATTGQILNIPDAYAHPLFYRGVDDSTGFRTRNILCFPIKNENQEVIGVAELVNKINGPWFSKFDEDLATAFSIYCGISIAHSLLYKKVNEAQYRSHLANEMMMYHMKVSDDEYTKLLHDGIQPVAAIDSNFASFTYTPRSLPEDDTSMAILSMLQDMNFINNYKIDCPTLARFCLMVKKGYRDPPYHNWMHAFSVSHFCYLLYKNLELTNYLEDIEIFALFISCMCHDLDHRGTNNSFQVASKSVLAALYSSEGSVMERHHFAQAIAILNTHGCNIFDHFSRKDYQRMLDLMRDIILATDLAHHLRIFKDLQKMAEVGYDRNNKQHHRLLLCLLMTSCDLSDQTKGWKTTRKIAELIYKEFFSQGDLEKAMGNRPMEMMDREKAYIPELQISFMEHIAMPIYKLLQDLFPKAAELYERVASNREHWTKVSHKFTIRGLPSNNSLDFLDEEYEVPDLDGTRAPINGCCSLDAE

IC50 [1] [nM] | IC50 [2] [nM] | Compound
55.2 | 86.8 | COc1ccc2nnc3c(C)nc(-c4cccc(C)c4F)n3c2n1 [Example 63, 9-(2-fluoro-3-methylphenyl)-2-methoxy-7-methylimidazo[5,1-c]pyrido[2,3-e][1,2,4]triazine]
56.2 | 85.6 | COc1ccc2nnc3c(C)nc(-c4ccncc4C)n3c2n1 [Example 64, 2-methoxy-7-methyl-9-(3-methylpyridin-4-yl)imidazo[5,1-c]pyrido[2,3-e][1,2,4]triazine]
22.9 | 120 | COc1ccc2nnc3c(C)nc(-c4c(C)nn(C)c4C)n3c2n1 [Example 65, 2-methoxy-7-methyl-9-(1,3,5-trimethyl-1H-pyrazol-4-yl)imidazo[5,1-c]pyrido[2,3-e][1,2,4]triazine]
49 | 225 | COc1ccc2nnc3c(C)nc(-c4ccc(F)nc4C)n3c2n1 [Example 66, 9-(6-fluoro-2-methylpyridin-3-yl)-2-methoxy-7-methylimidazo[5,1-c]pyrido[2,3-e][1,2,4]triazine]
55.6 | 226 | COc1ccc2nnc3c(C)nc(-c4cnc(F)c(C)c4)n3c2n1 [Example 67, 9-(6-fluoro-5-methylpyridin-3-yl)-2-methoxy-7-methylimidazo[5,1-c]pyrido[2,3-e][1,2,4]triazine]
48.3 | 49.9 | COc1ccc2nnc3c(C)nc(-c4ccc(C)cc4F)n3c2n1 [Example 69, 9-(2-fluoro-4-methylphenyl)-2-methoxy-7-methylimidazo[5,1-c]pyrido[2,3-e][1,2,4]triazine]
108 | 83.4 | COc1ccc2nnc3c(C)nc(-c4ccccc4OC)n3c2n1 [Example 70, 2-methoxy-9-(2-methoxyphenyl)-7-methylimidazo[5,1-c]pyrido[2,3-e][1,2,4]triazine]
4.37 | 37.9 | COc1ccc2nnc3c(C)nc(-c4cc(C)ccc4Cl)n3c2n1 [Example 71, 9-(2-chloro-5-methylphenyl)-2-methoxy-7-methylimidazo[5,1-c]pyrido[2,3-e][1,2,4]triazine]
24.9 | 282 | COc1ccc2nnc3c(C)nc(-c4cc(C(F)(F)F)ccc4Cl)n3c2n1 [Example 72, 9-(2-chloro-5-(trifluoromethyl)phenyl)-2-methoxy-7-methylimidazo[5,1-c]pyrido[2,3-e][1,2,4]triazine]
24.3 | 38 | COc1ccc2nnc3c(C)nc(-c4cc(F)ccc4C)n3c2n1 [Example 73, 9-(5-fluoro-2-methylphenyl)-2-methoxy-7-methylimidazo[5,1-c]pyrido[2,3-e][1,2,4]triazine]
10.1 | 87.9 | CCOc1ccc(Cl)c(-c2nc(C)c3nnc4ccc(OC)nc4n23)c1 [Example 74, 9-(2-chloro-5-ethoxyphenyl)-2-methoxy-7-methylimidazo[5,1-c]pyrido[2,3-e][1,2,4]triazine]
11.8 | 13.1 | COc1ccc2nnc3c(C)nc(-c4ccc(F)cc4Cl)n3c2n1 [Example 75, 9-(2-chloro-4-fluorophenyl)-2-methoxy-7-methylimidazo[5,1-c]pyrido[2,3-e][1,2,4]triazine]
10.6 | 149 | COc1ccc2nnc3c(C)nc(-c4cc(OC(F)(F)F)ccc4Cl)n3c2n1 [Example 76, 9-(2-chloro-5-(trifluoromethoxy)phenyl)-2-methoxy-7-methylimidazo[5,1-c]pyrido[2,3-e][1,2,4]triazine]
51.2 | 43.6 | COc1ccc2nnc3c(C)nc(-c4cscc4C)n3c2n1 [Example 77, 2-methoxy-7-methyl-9-(4-methylthiophen-3-yl)imidazo[5,1-c]pyrido[2,3-e][1,2,4]triazine]
1390 | 482 | COc1ccc2nnc3c(C)nc(-c4ccoc4)n3c2n1 [Example 78, 9-furan-3-yl-2-methoxy-7-methylimidazo[5,1-c]pyrido[2,3-e][1,2,4]triazine]

Source: US20100120762A1, “Triazine derivatives as inhibitors of phosphodiesterases” (WYETH, priority 2008, published 2010)
